According to PubChem BioAssay (NCI):
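Assay format: 96-well plates, 48-hour exposure. Definition used: TGI = concentration required for complete inhibition of growth.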

Tests used:
Assay in all cases: NCI anticancer screen, dose series, 48 h
A498 renal = tested on: A498 renal
A549 NSCLC = tested on: A549 NSCLC
HOP-62 NSCLC = tested on: HOP-62 NSCLC
HOP-92 NSCLC = tested on: HOP-92 NSCLC
HT29 colon = tested on: HT29 colon
IGROV1 ovarian = tested on: IGROV1 ovarian
KM12 colon = tested on: KM12 colon
MALME-3M melanoma = tested on: MALME-3M melanoma
OVCAR-8 ovarian = tested on: OVCAR-8 ovarian
RPMI-8226 leukemia = tested on: RPMI-8226 leukemia
SK-MEL-2 melanoma = tested on: SK-MEL-2 melanoma
TK-10 renal = tested on: TK-10 renal
UACC-62 melanoma = tested on: UACC-62 melanoma
UO-31 renal = tested on: UO-31 renal

| Structure (SMILES) | TGI (A498 renal) [µM] | TGI (A549 NSCLC) [µM] | TGI (HOP-62 NSCLC) [µM] | TGI (HOP-92 NSCLC) [µM] | TGI (HT29 colon) [µM] | TGI (IGROV1 ovarian) [µM] | TGI (KM12 colon) [µM] | TGI (MALME-3M melanoma) [µM] | TGI (OVCAR-8 ovarian) [µM] | TGI (RPMI-8226 leukemia) [µM] | TGI (SK-MEL-2 melanoma) [µM] | TGI (TK-10 renal) [µM] | TGI (UACC-62 melanoma) [µM] | TGI (UO-31 renal) [µM] |
| --- | --- | --- | --- | --- | --- | --- | --- | --- | --- | --- | --- | --- | --- | --- |
| Nc1cn(C2OC(CC(c3ccccc3)(c3ccccc3)c3ccccc3)C(O)C2O)c(=O)[nH]c1=O (stereo not given) | 95.5 | 83.1 | 63.1 | 39 | 58.8 | 70.7 | > 100 | 55.7 | 89.6 | 42 | > 100 | 96.2 | 28.5 | > 100 |
| C/C=C/CC(C(=O)OCC)(N(C)C(=O)OC(C)(C)C)S(=O)(=O)c1ccc(C)cc1 (stereo not given) | > 100 | > 100 | > 100 | > 100 | > 100 | > 100 | > 100 | > 100 | > 100 | > 100 | > 100 | > 100 | > 100 | > 100 |
| C/C(=C1/N=C(c2cc([N+](=O)[O-])ccc2Cl)N(c2ccc(Br)cc2)C1=O)c1ccc(N(CCC#N)CCC#N)cc1C | 96.4 | 62.6 | > 100 | > 100 | > 100 | > 100 | > 100 | > 100 | > 100 | 77.2 | > 100 | > 100 | 97.5 | > 100 |
| CCC(=O)OC1CCn2c1nc1c2C(=O)C(C)=C(NC(C)=O)C1=O (stereo not given) | 32.5 | 3.62 | 24.1 | 3.5 | 3.59 | 3.98 | 4.03 | 2.96 | 2.09 | 5.66 | 3.41 | 17 | 3.43 | 4.73 |
| Cc1ccsc1/C=N/NC1=NCCN1 | > 100 | > 100 | > 100 | > 100 | > 100 | > 100 | > 100 | > 100 | > 100 | > 100 | > 100 | > 100 | > 100 | > 100 |
| CCOC(=O)NN(C(=O)OCC)c1ccc(N=Nc2ccc(OC)cc2)n1C | 56.1 | 63.5 | 86.8 | 78.5 | 58.3 | 87.2 | 76.9 | 62.7 | > 100 | > 100 | 29.4 | > 100 | > 100 | 71 |
| C=C1C(=O)OC2C1CCC(=C)C1CC(O)C(=C)C12 (stereo not given) | 38 | 55.7 | 49.8 | 11.3 | 19.3 | 28 | 30.4 | 30.1 | 60.4 | 23 | 32.7 | 20.6 | 26.6 | 29.5 |
| c1ccc2c(c1)nnn2CNc1ccc(N2CCCCC2)cc1 | > 100 | > 100 | > 100 | > 100 | > 100 | > 100 | > 100 | > 100 | > 100 | > 100 | > 100 | > 100 | > 100 | > 100 |
| O=[N+]([O-])c1cc(C2(N3CCCCC3)CCCCC2)sc1Br | 16.1 | 33.7 | 17.3 | 21.7 | 15.4 | 25.1 | 20.2 | 20 | 24 | 4.45 | 21.4 | 6.61 | 23.5 | 24.6 |
| CCOC(=O)Cc1c(C)c2ccc(OC(C)=O)c(OC(C)=O)c2oc1=O | > 100 | > 100 | > 100 | 71.3 | 91.3 | 44.3 | > 100 | > 100 | 57.3 | > 100 | > 100 | 65.2 | 90 | 55.8 |
